Experimental data: patent US11209582B2, “Composition, curable composition, cured film, near infrared cut filter, infrared transmitting filter, solid image pickup element, infrared sensor, and camera module” (FUJIFILM Corporation, priority 2016, dated 2021)

How the values were obtained:
[1] = Absorption spectrum in solution (absorption maximum λmax, absorption coefficient); type: physicochemical
Excerpt: It is preferable that the compound represented by Formula (1) is a compound having an absorption maximum in a wavelength range of 700 to 1200 nm. In addition, a ratio A1/A2 of an absorbance A1 at a wavelength of 500 nm to an absorbance A2 at the absorption maximum is preferably 0.1 or lower and more preferably 0.05 or lower. The absorbance of the compound is a value obtained from the absorption spectrum of the compound in the solution. Examples of a measurement solvent used for the measurement of the absorption spectrum of the compound represented by Formula (1) in the solution include chloroform, dimethyl sulfoxide, and tetrahydrofuran. In a case where the compound represented by Formula (1) is soluble in chloroform, chloroform is used as the measurement solvent. In addition, in a case where the compound represented by Formula (1) is not soluble in chloroform and is soluble in dimethyl sulfoxide or tetrahydrofuran, dimethyl sulfoxide or tetrahydrofuran is used as the measurement solvent.

[2] = Measurement of solubility in solvent at 25° C.; type: physicochemical; details: organic solvent or mixture, thermodynamic from solid; in propylene glycol monomethyl ether acetate and 2-butanol at 25° C.
Method: <Measurement of Solubility>
A measurement sample was added to a solvent at 25° C. under the atmospheric pressure, the solution was stirred for 1 hour, and the solubility of the measurement sample in the solvent was obtained.

Row | λmax (absorption maximum) ([1]; in chloroform) [nm] | Structure (SMILES) | further results
1 |  | N#CC(c1nc2ccccc2s1)=c1c2c(-c3ccc(O)cc3)n(B(c3ccccc3)c3ccccc3)c(=C(C#N)c3nc4ccccc4s3)c2c(-c2ccc(O)cc2)n1B(c1ccccc1)c1ccccc1 [A-9] | λmax (absorption maximum) ([1]; in dimethyl sulfoxide (DMSO)): 782 nm
2 | 800 | COc1ccc2sc(C(C#N)=c3c4c(-c5ccc(OC(=O)c6ccccc6)cc5)n(B(c5ccccc5)c5ccccc5)c(=C(C#N)c5nc6cc(OC)ccc6s5)c4c(-c4ccc(OC(=O)c5ccccc5)cc4)n3B(c3ccccc3)c3ccccc3)nc2c1 [A-81] | 
3 | 795 | CCC(C)COc1cccc(-c2c3c(=C(C#N)c4nc5cc(C)c(C)cc5s4)n(B(c4ccccc4)c4ccccc4)c(-c4cccc(OCC(C)CC)c4)c3c(=C(C#N)c3nc4cc(C)c(C)cc4s3)n2B(c2ccccc2)c2ccccc2)c1 (centres unmarked) [A-30] | 
4 | 788 | CCC(C)COc1ccc(-c2c3c(=C(C#N)c4nc5ccc(C)cc5s4)n(B(c4ccccc4)c4ccccc4)c(-c4ccc(OCC(C)CC)cc4)c3c(=C(C#N)c3nc4ccc(C)cc4s3)n2B(c2ccccc2)c2ccccc2)cc1 (centres unmarked) [A-5] | 
5 | 802 | CCC(C)COc1ccc(-c2c3c(=C(C#N)c4nc5ccc(OC)cc5s4)n(B(c4ccccc4)c4ccccc4)c(-c4ccc(OCC(C)CC)cc4)c3c(=C(C#N)c3nc4ccc(OC)cc4s3)n2B(c2ccccc2)c2ccccc2)cc1 (centres unmarked) [A-8] | 
6 | 782 | CCC(C)COc1ccc(-c2c3c(=C(C#N)c4nc5cc(Cl)ccc5s4)n(B(c4ccccc4)c4ccccc4)c(-c4ccc(OCC(C)CC)cc4)c3c(=C(C#N)c3nc4cc(Cl)ccc4s3)n2B(c2ccccc2)c2ccccc2)cc1 (centres unmarked) [A-2] | 
7 | 785 | CCC(C)COc1ccc(-c2c3c(=C(C#N)c4nc5cc(C)ccc5s4)n(B(c4ccccc4)c4ccccc4)c(-c4ccc(OCC(C)CC)cc4)c3c(=C(C#N)c3nc4cc(C)ccc4s3)n2B(c2ccccc2)c2ccccc2)cc1 (centres unmarked) [A-4] | 
8 | 862 | CCC(C)COc1ccc(-c2c3/c(=C(\C#N)c4cnc5ccccc5n4)n(B(c4ccccc4)c4ccccc4)c(-c4ccc(OCC(C)CC)cc4)c3/c(=C(\C#N)c3cnc4ccccc4n3)n2B(c2ccccc2)c2ccccc2)cc1 (centres unmarked) [A-201] | 
9 | 780 | CCC(C)COc1ccc(-c2c3c(=C(C#N)c4nc5ccccc5s4)n(B(c4ccccc4)c4ccccc4)c(-c4ccc(OCC(C)CC)cc4)c3c(=C(C#N)c3nc4ccccc4s3)n2B(c2ccccc2)c2ccccc2)cc1 (centres unmarked) [A-1] | 
10 | 794 | CCC(C)COc1ccc(-c2c3c(=C(C#N)c4nc5cc(OC)ccc5s4)n(B(c4ccccc4)c4ccccc4)c(-c4ccc(OCC(C)CC)cc4)c3c(=C(C#N)c3nc4cc(OC)ccc4s3)n2B(c2ccccc2)c2ccccc2)cc1 (centres unmarked) [A-7] | 
11 |  | N#C/C(c1cnc2cc(Cl)c(Cl)cc2n1)=c1\c2c(-c3ccc(OC(=O)c4ccc5c(c4)C(=O)N(CCCS(=O)(=O)O)C5=O)cc3)n(B(c3ccccc3)c3ccccc3)/c(=C(/C#N)c3cnc4cc(Cl)c(Cl)cc4n3)c2c(-c2ccc(OC(=O)c3ccc4c(c3)C(=O)N(CCCS(=O)(=O)O)C4=O)cc2)n1B(c1ccccc1)c1ccccc1 [B-634] | solubility at 1 h [2]: < 100 µg/mL
12 | 794 | CCC(C)COc1ccc(-c2c3c(=C(C#N)c4nc5cc(C)c(C)cc5s4)n(B(c4ccccc4)c4ccccc4)c(-c4ccc(OCC(C)CC)cc4)c3c(=C(C#N)c3nc4cc(C)c(C)cc4s3)n2B(c2ccccc2)c2ccccc2)cc1 (centres unmarked) [A-6] | 
13 |  | Cc1cc2nc(C(C#N)=c3c4c(-c5ccc(O)cc5)n(B(c5ccccc5)c5ccccc5)c(=C(C#N)c5nc6cc(C)c(C)cc6s5)c4c(-c4ccc(O)cc4)n3B(c3ccccc3)c3ccccc3)sc2cc1C [A-14] | λmax (absorption maximum) ([1]; in dimethyl sulfoxide (DMSO)): 795 nm
14 | 883 | CCN(CC)CCCN1C(=O)c2ccc(C(=O)Oc3ccc(-c4c5/c(=C(\C#N)c6cnc7cc(Cl)c(Cl)cc7n6)n(B(c6ccccc6)c6ccccc6)c(-c6ccc(OC(=O)c7ccc8c(c7)C(=O)N(CCCN(CC)CC)C8=O)cc6)c5/c(=C(\C#N)c5cnc6cc(Cl)c(Cl)cc6n5)n4B(c4ccccc4)c4ccccc4)cc3)cc2C1=O [B-644] | solubility at 1 h [2]: < 100 µg/mL
15 |  | COc1ccc2sc(C(C#N)=c3c4c(-c5ccc(O)cc5)n(B(c5ccccc5)c5ccccc5)c(=C(C#N)c5nc6cc(OC)ccc6s5)c4c(-c4ccc(O)cc4)n3B(c3ccccc3)c3ccccc3)nc2c1 [A-15] | gram absorption coefficient [1]: 200 L/g/cm; molar absorption coefficient [1]: 185000 L/mol/cm; λmax (absorption maximum) ([1]; in dimethyl sulfoxide (DMSO)): 795 nm
16 | 782 | CCC(C)COc1cccc(-c2c3c(=C(C#N)c4nc5ccccc5s4)n(B(c4ccccc4)c4ccccc4)c(-c4cccc(OCC(C)CC)c4)c3c(=C(C#N)c3nc4ccccc4s3)n2B(c2ccccc2)c2ccccc2)c1 (centres unmarked) [A-25] | 
17 |  | N#CC(c1nc2cc(Cl)ccc2s1)=c1c2c(-c3ccc(O)cc3)n(B(c3ccccc3)c3ccccc3)c(=C(C#N)c3nc4cc(Cl)ccc4s3)c2c(-c2ccc(O)cc2)n1B(c1ccccc1)c1ccccc1 [A-10] | λmax (absorption maximum) ([1]; in dimethyl sulfoxide (DMSO)): 782 nm
18 | 717 | CCC(C)COc1ccc(-c2c3c(=C(C#N)c4nc5ccccc5s4)n(B4Oc5ccccc5O4)c(-c4ccc(OCC(C)CC)cc4)c3c(=C(C#N)c3nc4ccccc4s3)n2B2Oc3ccccc3O2)cc1 (centres unmarked) [A-60] | 
19 | 883 | CN1C(=O)c2ccc(C(=O)Oc3ccc(-c4c5c(=C(C#N)c6cnc7cc(Cl)c(Cl)cc7n6)n(B(c6ccccc6)c6ccccc6)c(-c6ccc(OC(=O)c7ccc8c(c7)C(=O)N(C)C8=O)cc6)c5c(=C(C#N)c5cnc6cc(Cl)c(Cl)cc6n5)n4B(c4ccccc4)c4ccccc4)cc3)cc2C1=O [A-514] | 
20 | 786 | CCC(C)COc1ccc(-c2c3c(=C(C#N)c4nc5ccc(Cl)cc5s4)n(B(c4ccccc4)c4ccccc4)c(-c4ccc(OCC(C)CC)cc4)c3c(=C(C#N)c3nc4ccc(Cl)cc4s3)n2B(c2ccccc2)c2ccccc2)cc1 (centres unmarked) [A-3] | 
